According to patent US20220135567A1, “TYK2 PSEUDOKINASE LIGANDS” (Ventyx Biosciences, Inc., priority 2019, published 2022):

Each molecule was assayed on IFN-a/Jak1Tyk2 (assay: Co-stimulation assay in lysed whole blood: IFNa (JAK1/TYK2) stimulated STAT1 phosphorylation). Settings: 20 min, lysed human whole blood, IFNa 100 ng/mL + GM-CSF 10 ng/mL, pSTAT1 by flow cytometry.
Type: cell-based
Method: Dilute RBC lysis buffer to 1× in distilled water. Add 2 mL blood to 38 mL of 1×RBC-lysis buffer. Incubate for 15 mins at RT, in dark. Spin at 300 g, 5 mins, to collect the pellet. Re-lyse if necessary. Re-suspend pellet in 5 mL of cRPMI.
Aliquot 80 μL of lysed human blood in to wells of 96 deep-well plate. Add 10 μl of (10× conc.) of different concentrations of compounds to all wells except controls (unstained and unstimulated) and mix it with the help of 100 uL multichannel. Add 10 uL of RPMI media in controls. For dilution of compounds and dilution range please refer Appendix. Incubate on water bath or CO2 incubator for 1 hour at 37° C. Add 10 μl of (10× conc.) of cytokine mix (GM-CSF and IFNa) (final conc. 10 ng/mL of GM-CSF and 100 ng/mL of IFNa) to each well except unstimulated and unstained controls and incubate further for 20 minutes on water bath at 37° C.
Add 900 μL of prewarmed 1× Fix/Lyse solution (Appendix) and mix it properly using 1000 μl multichannel, incubate further on water bath at 37° C. for 10 minutes (which includes time of addition). Centrifuge at 800×g for 5 minutes at 40° C.; remove 900 uL of supernatant and add 900 μL of 1×PBS. Centrifuge at 800×g for 5 minutes at 40° C., remove 900 μL of supernatant. Wash one more time with 900 μL of PBS (optional) and resuspend pellets in 100 uL of PBS.
Disrupt the pellet by gentle tapping and resuspend in 1000 μL of BD Phosflow Perm Buffer III and incubate plate on ice for 30 minutes. Centrifuge plate at 800×g for 5 minutes at 40° C. Wash two more times with 1000 μL of BD Pharmingen Stain Buffer.
Disrupt the pellet by gentle tapping. Resuspend pellets in 100 uL of Stain Buffer and add 5 μL of pSTAT5_AF488 Ab and 5 uL of pSTAT1_PE in all wells except unstained control and mix properly using 200 μl multichannel, incubate overnight at […]. Add 900 μL of wash buffer and centrifuge at 1800 rpm for 3 minutes at […]. Wash one more time with 1000 μL of BD Pharmingen Stain Buffer. Finally resuspend the pellet in 300 uL of BD Pharmingen Stain Buffer. Transfer the cells to 96-well v-bottom plate and acquire the cells in Beckman Coulter CytExpert. Acquiring cells in Flow Cytometer: Keep the threshold value to 250 and cell concentration should not exceed 100-500 cells/μL. Acquire at least 5,000-10,000 cells.
Cytokine dilution: 1) GM-CSF Stock at 100 ug/mL. Prepare an intermediate dilution of 1 ug/mL by adding 2 uL of stock into 198 uL of cRPMI. Further dilute to 100 ng/mL by adding 100 uL of the intermediate stock to 900 uL of cRPMI. 2) IFNa Stock at 200 ug/mL. Dilute IFNa stock 1:200 by adding 5 uL of stock into the 1000 uL of 100 ng/mL GM-CSF working stock as above to give a combined working stock of 1000 ng/mL of IFNa and 100 ng/mL GM-CSF (10×). Keep it on ice until used.
Lyse/Fix buffer preparation: Dilute 5× Lyse/Fix buffer to 1× using MQ water and keep at 37° C. until used.
BD Phosflow perm buffer III: Keep on ice/fridge.
`CNc1cc(Nc2cc(Cl)ccc2OC(F)(F)F)nc2c(C(=O)NC3CC3)cnn12` [Compound 57, 5-((5-chloro-2-(trifluoromethoxy)phenyl)amino)-N-cyclopropyl-7-(methylamino)pyrazolo[1,5-a]pyrimidine-3-carboxamide] was tested, and the IC50 was 100 to 1000 nM. `CNc1cc(Nc2cccn(-c3cccc(C)n3)c2=O)nc2c(C(=O)NC3CC(C#N)C3)cnn12` (stereo not drawn) [Compound 99, N-(3-cyanocyclobutyl)-5-((6′-methyl-2-oxo-2H-[1,2′-bipyridin]-3-yl)amino)-7-(methylamino)pyrazolo[1,5-a]pyrimidine-3-carboxamide] showed an IC50 of 1000 to 10000 nM. `CNc1cc(Nc2ccccc2C(=O)OC)nc2c(C(=O)NC3CC3)cnn12` [Compound 28, methyl 2-((3-(cyclopropylcarbamoyl)-7-(methylamino)pyrazolo[1,5-a]pyrimidin-5-yl)amino)benzoate] showed an IC50 of 100 to 1000 nM. Work on `CNc1cc(Nc2cccnc2C)nc2c(C(=O)NC3CC3)cnn12` [Compound 31, N-cyclopropyl-7-(methylamino)-5-((2-methylpyridin-3-yl)amino)pyrazolo[1,5-a]pyrimidine-3-carboxamide] yielded an IC50 of over 300 nM. With `CNc1cc(Nc2c(F)c(F)cc(F)c2F)nc2c(C(=O)NCC(C)(C)CO)cnn12` [Compound 24, N-(3-hydroxy-2,2-dimethylpropyl)-7-(methylamino)-5-((2,3,5,6-tetrafluorophenyl)amino)pyrazolo[1,5-a]pyrimidine-3-carboxamide] the IC50 was under 100 nM. `CNc1cc(Nc2c(F)c(F)cc(F)c2F)nc2c(C(=O)NC3CC3)cnn12` [Compound 17, N-cyclopropyl-7-(methylamino)-5-((2,3,5,6-tetrafluorophenyl)amino)pyrazolo[1,5-a]pyrimidine-3-carboxamide] was tested, and the IC50 was under 100 nM. Molecule `CCOC(=O)c1cscc1Nc1cc(NC)n2ncc(C(=O)NC3CC3)c2n1` [Compound 37, ethyl 4-((3-(cyclopropylcarbamoyl)-7-(methylamino)pyrazolo[1,5-a]pyrimidin-5-yl)amino)thiophene-3-carboxylate] has an IC50 of over 300 nM. In the case of `[2H]C([2H])([2H])Nc1cc(Nc2cc(Cl)cc3c2OCCO3)nc2c(C(=O)NC3CC3)cnn12` [Compound 77, 5-((7-chloro-2,3-dihydrobenzo[b][1,4]dioxin-5-yl)amino)-N-cyclopropyl-7-((methyl-d3)amino)pyrazolo[1,5-a]pyrimidine-3-carboxamide], the IC50 is reported as under 100 nM. Molecule `CNc1cc(Nc2cccn(-c3ccc(OC)nn3)c2=O)nc2c(C(=O)N[C@@H]3C[C@@H]3F)cnn12` [Compound 101, N-((1R,2S)-2-fluorocyclopropyl)-5-((1-(6-methoxypyridazin-3-yl)-2-oxo-1,2-dihydropyridin-3-yl)amino)-7-(methylamino)pyrazolo[1,5-a]pyrimidine-3-carboxamide] has an IC50 of under 100 nM. Molecule `CNc1cc(Nc2csnc2C(=O)O)nc2c(C(=O)NCCOC)cnn12` [Compound 46, 4-((3-((2-methoxyethyl)carbamoyl)-7-(methylamino)pyrazolo[1,5-a]pyrimidin-5-yl)amino)isothiazole-3-carboxylic acid] has an IC50 of over 300 nM. In the case of `[2H]C([2H])([2H])Nc1cc(Nc2cc(F)cc3c2OCCO3)nc2c(C(=O)N[C@@H]3C[C@@H]3F)cnn12` [Compound 80, 5-((7-fluoro-2,3-dihydrobenzo[b][1,4]dioxin-5-yl)amino)-N-((1R,2S)-2-fluorocyclopropyl)-7-((methyl-d3)amino)pyrazolo[1,5-a]pyrimidine-3-carboxamide], the IC50 is reported as under 100 nM. Molecule `CNc1cc(Nc2cccc3c2OCO3)nc2c(C(=O)NCC(C)(C)CO)cnn12` [Compound 50, 5-(benzo[d][1,3]dioxol-4-ylamino)-N-(3-hydroxy-2,2-dimethylpropyl)-7-(methylamino)pyrazolo[1,5-a]pyrimidine-3-carboxamide] has an IC50 of under 100 nM. `CNc1cc(Nc2cccn(-c3cc(C)n(C)n3)c2=O)nc2c(C(=O)NC3CC3)cnn12` [Compound 32, N-cyclopropyl-5-((1-(1,5-dimethyl-1H-pyrazol-3-yl)-2-oxo-1,2-dihydropyridin-3-yl)amino)-7-(methylamino)pyrazolo[1,5-a]pyrimidine-3-carboxamide] gave an IC50 of 100 to 1000 nM. Molecule `CNc1cc(Nc2cc(C)cnc2OC)nc2c(C(=O)NC3CC3)cnn12` [Compound 56, N-cyclopropyl-5-((2-methoxy-5-methylpyridin-3-yl)amino)-7-(methylamino)pyrazolo[1,5-a]pyrimidine-3-carboxamide] has an IC50 of 100 to 1000 nM. For `CNc1cc(Nc2cccn(C)c2=O)nc2c(C(=O)NC3CC(OC)C3)cnn12` (stereo not drawn) [Compound 88, N-(3-methoxycyclobutyl)-5-((1-methyl-2-oxo-1,2-dihydropyridin-3-yl)amino)-7-(methylamino)pyrazolo[1,5-a]pyrimidine-3-carboxamide], the IC50 was over 3000 nM. With `CNc1cc(Nc2cccc3c2OCCO3)nc2c(C(=O)NCC(F)(F)F)cnn12` [Compound 52, 5-((2,3-dihydrobenzo[b][1,4]dioxin-5-yl)amino)-7-(methylamino)-N-(2,2,2-trifluoroethyl)pyrazolo[1,5-a]pyrimidine-3-carboxamide] the IC50 was 100 to 1000 nM. Molecule `CNc1cc(Nc2cccn(-c3ccc(OC)nn3)c2=O)nc2c(C(=O)NCC(F)(F)F)cnn12` [Compound 67, 5-((1-(6-methoxypyridazin-3-yl)-2-oxo-1,2-dihydropyridin-3-yl)amino)-7-(methylamino)-N-(2,2,2-trifluoroethyl)pyrazolo[1,5-a]pyrimidine-3-carboxamide] has an IC50 of 1000 to 10000 nM. `CNc1cc(Nc2cc(C(F)(F)F)cnc2OC)nc2c(C(=O)NC3CC3)cnn12` [Compound 62, N-cyclopropyl-5-((2-methoxy-5-(trifluoromethyl)pyridin-3-yl)amino)-7-(methylamino)pyrazolo[1,5-a]pyrimidine-3-carboxamide] showed an IC50 of 1000 to 10000 nM. In the case of `CNc1cc(Nc2cccc3c2OCCC3)nc2c(C(=O)NCC(C)(C)CO)cnn12` [Compound 90, 5-(chroman-8-ylamino)-N-(3-hydroxy-2,2-dimethylpropyl)-7-(methylamino)pyrazolo[1,5-a]pyrimidine-3-carboxamide], the IC50 is reported as under 100 nM. Work on `CNc1cc(Nc2cccn(C)c2=O)nc2c(C(=O)NC3CC(F)(F)C3)cnn12` [Compound 91, N-(3,3-difluorocyclobutyl)-5-((1-methyl-2-oxo-1,2-dihydropyridin-3-yl)amino)-7-(methylamino)pyrazolo[1,5-a]pyrimidine-3-carboxamide] yielded an IC50 of 1000 to 10000 nM. Molecule `CNc1cc(Nc2cccn(-c3cccc(C)n3)c2=O)nc2c(C(=O)NC3CC(O)C3)cnn12` (stereo not drawn) [Compound 100, N-(3-hydroxycyclobutyl)-5-((6′-methyl-2-oxo-2H-[1,2′-bipyridin]-3-yl)amino)-7-(methylamino)pyrazolo[1,5-a]pyrimidine-3-carboxamide] has an IC50 of 1000 to 10000 nM. With `CNc1cc(Nc2cccn(-c3ccccn3)c2=O)nc2c(C(=O)NC3CCC3)cnn12` [Compound 114, N-cyclobutyl-7-(methylamino)-5-((2-oxo-2H-[1,2′-bipyridin]-3-yl)amino)pyrazolo[1,5-a]pyrimidine-3-carboxamide] the IC50 was under 100 nM. In the case of `CNc1cc(Nc2cccc3c2OCCO3)nc2c(C(=O)NC3CCC3)cnn12` [Compound 96, N-cyclobutyl-5-((2,3-dihydrobenzo[b][1,4]dioxin-5-yl)amino)-7-(methylamino)pyrazolo[1,5-a]pyrimidine-3-carboxamide], the IC50 is reported as under 100 nM.

Same assay, conditions: lysed human whole blood; IFNa 100 ng/mL + GM-CSF 10 ng/mL, 20 minutes; pSTAT1 by flow cytometry
With `CNc1cc(Nc2cc(C)cc(C)c2)nc2c(C(N)=O)cnn12` [Compound 10, 5-((3,5-dimethylphenyl)amino)-7-(methylamino)pyrazole[1,5-a]pyrimidine-3-carboxamide] the IC50 was under 100 nM.
